Measurements: US20120190666A1, “Heteroaryl Compounds as PIKK Inhibitors” (Amgen Inc., priority 2009, published 2012)

What was measured:
[1] = system: phosphorylation of Akt at Serine 473 in U87 MG cells; assay: pAkt AlphaScreen (U87 cell); format: cell-based; details: Homo sapiens, U-87 MG, 2 h; pAkt at Serine 473, U87 MG cells, two hours with compound
Method: The pAkt AlphaScreen® assay (PerkinElmer, Waltham, Mass.) determines whether there is phosphorylation of Akt at Serine 473 by recruitment of a phosphospecific antibody. This assay was performed using U87 MG cells. The U87 growth media consists of MEM (Gibco, Carlsbad, Calif.) supplemented with 10% FBS (Gibco), 1× Non-Essential Amino Acids (Gibco,) and 1× Penicillin/Streptomycin/Glutamine (Gibco). The cells were maintained weekly using 0.05% Trypsin (Gibco) and replated in 150 mm TC— Treated Culture Dishes (Corning, Corning, N.Y.).
The first day of the assay, the adherent cells were trypsinized, media was added to the loose cells and cells were mixed to a homogenous mixture. 0.5 ml of the homogenous mixture was counted on the Beckman Coulter® Vi-Cell™ XR (Fullerton, Calif.). 50 frames of cells were counted and the number of viable cells was determined. The cells were then diluted to 0.25 million cells per ml, and centrifuged at 200 rcf for 5 minutes. The media was removed and the cells were reconstituted in fresh media for plating. The cells were plated at 20 μl per well on the PerkinElmer® FlexDrop PLUS in Low Volume 384 Well White Tissue Culture Plates (Corning) with a final cell density of 5K cells per well. The plates were incubated overnight at 37° Celsius, 5% CO2.
On the second day, the compound plates were prepared, the cells were treated with compound and the pAkt reaction mix was added to the cell lysate. 384 well compound plates were prepared containing 1 μl of compound per well starting at 5 mM and diluted 1:2 across the row, resulting in a 22 well serial dilution. 39 μl of growth media was added to the compound plate in rows 1-22 using the PerkinElmer® FlexDrop PLUS resulting in a DMSO concentration of 2.5%. The cell plates and diluted compound plates were put onto the VELOCITY11™ VPREP™ 384 ST where the compound plate was mixed and 5 μl of serially diluted compound or controls was added to the cell plate. The final concentration of the compounds was 25 μM serially diluted to 11.9 pM in 0.5% DMSO.
The cell plates were then incubated with compound for two hours at 37° C., 5% CO2. After two hours, the media in the cell plates was aspirated using the BioTek® ELx405HT plate washer (Winooski, Vt.) removing the majority of media and compound without disturbing the adherent U87 cells. The following assay reagents are components of the SureFire® Akt (Ser 473) Phosphorylation 50K Point Kit (TGR BioSciences, Adelaide, Austalia) and an IgG Detection Kit (PerkinElmer, Waltham, Mass.). 5 μl of 1× Lysis Buffer was added to each well using the PerkinElmer® FlexDrop PLUS. The plates were then incubated at room temperature on a shaker for ten minutes. The AlphaScreen® reaction was prepared under low light conditions (subdued or green light) including p-Aid (Ser 473) Reaction Buffer, Dilution Buffer, Activation Buffer, Acceptor Beads and Donor Beads at a ratio of 40:20:10:1:1 respectively. The AlphaScreen® reaction was added to the cell lysate at 6 μl per well using the PerkinElmer® FlexDrop PLUS. The plates were placed in a humid environment to reduce edge effects and incubated overnight at room temperature with restricted air flow in the dark.
On the final day of the experiment, the plates were read on the PerkinElmer® EnVision™ 2103 Multilable Reader using the standard AlphaScreen® readout. The POC is calculated and the data is analyzed to report the IC50 IP for pAkt at Serine 473.
Activity data for the compounds tested in the PI3K cell based Akt assay is provided in Table 1 under the column heading U87

mTOR = mTOR (Homo sapiens, UniProt P42345); assay: mTOR LanthaScreen (TR-FRET, phosphorylation of 4EBP1); format: biochemical; details: phosphorylation of GFP-4E-BP1, 10 μM ATP, 90 minutes
Method: The mTOR LanthaScreen is a TR-FRET assay measuring the phosphorylation of mTOR's substrate 4EBP1. 384 well compound plates were prepared containing 1 μl of compound per well starting at 5 mM and diluted 1:2 across the row, resulting in a 22 well serial dilution. 24 μl of assay buffer (Invitrogen, PV4794) with 2 mM DTT was added to the compound plate in rows 1-24 using the VELOCITY 11™ VPREP™ 384 ST resulting in a DMSO concentration of 4%. The compound plate was mixed and 2.5 μl of serially diluted compound or controls was added to the assay plate (Costar, 3658).
The assay was conducted on the PerkinElmer® FlexDrop PLUS. A 5 μl mix of 800 nM GFP-4E-BP1 (Invitrogen, PV4759) and 20 μM ATP (Amgen) was added to rows 1-24. 2.5 μl of 0.6 μg/ml of mTOR Enzyme (Amgen) was added to rows 1-23. 2.5 μl of assay buffer was added to row 24 for the low control. The final concentration of the compounds was 50 μM serially diluted to 23.84 pM in 1% DMSO. […] The final concentrations in the assay reagents were 400 nM GFP-4E-BP1, 10 μM of ATP and 0.15 μg/ml of mTOR enzyme. The compound, enzyme, and substrate were incubated for 90 minutes. At this point, 10 μl of stop solution was added (20 mM Tris, pH 7.5 (Invitrogen, 15567-027), 0.02% Sodium Azide (Teknova, S0208), 0.01% NP-40 (Roche, 11754599001), 20 mM EDTA (Invitrogen, 15575-038) and 4 nM of Tb-anti-p4E-BP1 (Invitrogen, PV4758)) for a final concentration of 2 nM of Tb-anti-p4E-BP1.
Sixty minutes later the plates were read on the PerkinElmer® EnVision™ 2103 Multilable Reader using the Excitation filter 340 nm and the Emission filters 520 nm and 495 nm.

Row | Compound | IC50 [1] | IC50 (mTOR)
1 | Cc1nc(N)nc(-c2c(Nc3cc[nH]n3)nc3ccccn23)n1 [Cpd 1, 3-(4-amino-6-methyl-1,3,5-triazin-2-yl)-N-(1H-pyrazol-3-yl)imidazo[1,2-a]pyridin-2-amine] | 20 nM | 12 nM
2 | Cc1nc(-c2c(Nc3cccc(O)c3)nc3ccccn23)c2nc[nH]c2n1 [Cpd 2] | 50 nM | 24 nM
3 | CNc1nc(C)nc(-c2c(Nc3cc[nH]n3)nc3ccccn23)n1 [Cpd 3, 3-(4-methyl-6-(methylamino)-1,3,5-triazin-2-yl)-N-(1H-pyrazol-3-yl)imidazo[1,2-a]pyridin-2-amine] | 50 nM | 53 nM
4 | Cc1nc(N)cc(-c2c(Nc3cc[nH]n3)nc3cccnn23)n1 [Cpd 7, 3-(6-amino-2-methylpyrimidin-4-yl)-N-(1H-pyrazol-3-yl)imidazo[1,2-b]pyridazin-2-amine] | 20 nM | 11 nM
5 | Cc1nc(N)cc(-n2nc(C(=O)Nc3cccnc3)cc2Nc2ccn[nH]2)n1 [Cpd 11, 5-(1H-pyrazol-5-ylamino)-1-(6-amino-2-methylpyrimidin-4-yl)-N-(pyridin-3-yl)-1H-pyrazole-3-carboxamide] | 600 nM | 820 nM
6 | Cc1nc(N)cc(-n2nc(C(=O)N3CCOCC3)cc2Nc2ccn[nH]2)n1 [Cpd 13, (5-(1H-pyrazol-5-ylamino)-1-(6-amino-2-methylpyrimidin-4-yl)-1H-pyrazol-3-yl)(morpholino)methanone] | 280 nM | 100 nM
7 | CNC(=O)c1cc(Nc2ccn[nH]2)n(-c2cc(N)nc(C)n2)n1 [Cpd 14, 5-(1H-pyrazol-5-ylamino)-1-(6-amino-2-methylpyrimidin-4-yl)-N-methyl-1H-pyrazole-3-carboxamide] | 440 nM | 120 nM
8 | CCOC(=O)c1cc(Nc2cc[nH]n2)n(-c2cc(N)nc(C)n2)n1 [Cpd 15, ethyl 5-(1H-pyrazol-3-ylamino)-1-(6-amino-2-methylpyrimidin-4-yl)-1H-pyrazole-3-carboxylate] | 110 nM | 144 nM
9 | Cc1nc(N)cc(-n2nc(C(=O)NC3CC3)cc2Nc2cc[nH]n2)n1 [Cpd 16, 5-(1H-pyrazol-5-ylamino)-1-(6-amino-2-methylpyrimidin-4-yl)-N-cyclopropyl-1H-pyrazole-3-carboxamide] | 350 nM | 380 nM
10 | Cc1cc(Nc2cc[nH]n2)n(-c2cc(N)nc(C)n2)n1 [Cpd 18, 6-(5-(1H-pyrazol-3-ylamino)-3-methyl-1H-pyrazol-1-yl)-2-methylpyrimidin-4-amine] | 710 nM | 860 nM
11 | COc1ccc(Nc2cc(C)nn2-c2cc(N)nc(C)n2)cn1 [Cpd 24, 6-(5-(6-methoxypyridin-3-ylamino)-3-methyl-1H-pyrazol-1-yl)-2-methylpyrimidin-4-amine] | 870 nM | > 50000 nM
12 | Cc1nc(Nc2ccccc2F)cc(-c2c(Nc3cc[nH]n3)nc3cccnn23)n1 [Cpd 31, 3-(6-((2-fluorophenyl)amino)-2-methyl-4-pyrimidinyl)-N-1H-pyrazol-3-ylimidazo[1,2-b]pyridazin-2-amine] | 790 nM | 6180 nM
13 | COc1ccc(Nc2cc(-c3c(Nc4cc[nH]n4)nc4cccnn34)nc(C)n2)cc1 [Cpd 33] | 290 nM | 2840 nM
14 | Cc1nc(Nc2cccnn2)cc(-c2c(Nc3ccn(C)n3)nc3cccnn23)n1 [Cpd 34, N-(1-methyl-1H-pyrazol-3-yl)-3-(2-methyl-6-(3-pyridazinylamino)-4-pyrimidinyl)imidazo[1,2-b]pyridazin-2-amine] | 60 nM | 440 nM
15 | Cc1nc(Nc2ccc(N3CCN(C)CC3)nn2)cc(-c2c(Nc3cc[nH]n3)nc3cccnn23)n1 [Cpd 35, 3-(2-methyl-6-((6-(4-methyl-1-piperazinyl)-3-pyridazinyl)amino)-4-pyrimidinyl)-N-1H-pyrazol-3-ylimidazo[1,2-b]pyridazin-2-amine] | 70 nM | 10 nM
16 | CCNC(=O)Nc1ccc(Nc2nc3ccccn3c2-c2cc(N)nc(C)n2)cc1 [Cpd 40, 1-(4-((3-(6-amino-2-methyl-4-pyrimidinyl)imidazo[1,2-a]pyridin-2-yl)amino)phenyl)-3-ethylurea] | 60 nM | 10 nM
17 | Cc1nc(N)cc(-c2c(Nc3ccc4cc[nH]c4n3)nc3ccccn23)n1 [Cpd 41, 3-(6-amino-2-methyl-4-pyrimidinyl)-N-1H-pyrrolo[2,3-b]pyridin-6-ylimidazo[1,2-a]pyridin-2-amine] | 400 nM | 400 nM
18 | Cc1nc(Nc2ccc(N3CCOCC3)nn2)cc(-c2c(Nc3cc[nH]n3)nc3ccccn23)n1 [Cpd 49, 3-(2-methyl-6-((6-(4-morpholinyl)-3-pyridazinyl)amino)-4-pyrimidinyl)-N-1H-pyrazol-3-ylimidazo[1,2-a]pyridin-2-amine] | 60 nM | 80 nM
19 | COCCOc1cnnc(Nc2cc(-c3c(Nc4ccc(NC(C)=O)cc4)nc4cccnn34)nc(C)n2)c1 [Cpd 53, N-(4-((3-(6-((5-(2-methoxyethoxy)-3-pyridazinyl)amino)-2-methyl-4-pyrimidinyl)imidazo[1,2-b]pyridazin-2-yl)amino)phenyl)acetamide] | 10 nM | 1 nM
20 | Cc1nc(N)cc(-c2c(Nc3ccc(NC(=O)Nc4ccncc4)cc3)nc3ccccn23)n1 [Cpd 57, 1-(4-((3-(6-amino-2-methyl-4-pyrimidinyl)imidazo[1,2-a]pyridin-2-yl)amino)phenyl)-3-(4-pyridinyl)urea] | 70 nM | 10 nM
21 | Cc1nc(Nc2cc(OCC(F)(F)F)cnn2)cc(-c2c(Nc3cc[nH]n3)nc3cccnn23)n1 [Cpd 60, 3-(2-methyl-6-((5-(2,2,2-trifluoroethoxy)-3-pyridazinyl)amino)-4-pyrimidinyl)-N-1H-pyrazol-3-ylimidazo[1,2-b]pyridazin-2-amine] | 20 nM | 10 nM
22 | CC(=O)Nc1cc(-c2c(Nc3ccn(C)n3)nc3c(F)cccn23)nc(C)n1 [Cpd 63, N-(6-(8-fluoro-2-((1-methyl-1H-pyrazol-3-yl)amino)imidazo[1,2-a]pyridin-3-yl)-2-methyl-4-pyrimidinyl)acetamide] | 50 nM | 60 nM
